Reference: patent US20090069373A1, “Quinoline Acids” (Wyeth, priority 2007, published 2009)

Key:
human LXRα = target: T1, human LXRα (Homo sapiens, UniProt Q13133); assay: Ligand-binding test procedure for human LXRα (3H T0901317 competition, flash plates); settings: biotinylated hLXRα, tracer 3H T0901317
T1 construct: biotin (biotinylated; biotinylation tag not described); made in house; host or cells: E. coli
T1 sequence (Q13133 1-447): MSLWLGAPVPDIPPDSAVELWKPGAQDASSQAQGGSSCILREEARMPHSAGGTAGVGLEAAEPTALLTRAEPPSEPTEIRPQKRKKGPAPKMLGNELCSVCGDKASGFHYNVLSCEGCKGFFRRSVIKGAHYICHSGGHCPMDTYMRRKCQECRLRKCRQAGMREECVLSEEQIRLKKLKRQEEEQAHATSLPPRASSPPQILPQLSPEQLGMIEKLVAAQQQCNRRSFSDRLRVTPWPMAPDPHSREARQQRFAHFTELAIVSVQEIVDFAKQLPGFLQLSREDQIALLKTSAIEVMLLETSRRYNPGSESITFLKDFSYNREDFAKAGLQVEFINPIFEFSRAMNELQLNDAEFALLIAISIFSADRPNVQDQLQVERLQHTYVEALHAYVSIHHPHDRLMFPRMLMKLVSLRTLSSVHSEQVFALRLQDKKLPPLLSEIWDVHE
Method in brief: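 Competition binding of test ligands against 5 nM ³H tracer solution (pre-mix concentration) on biotinylated hLXRα from E. coli extract, captured on streptavidin flash plates (Bmax ~4000 cpm). Ligand dilution series made in DMSO. Incubated overnight at +4 °C; bound radioactivity counted after washing.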

human LXRβ = target: T2, human LXRβ (Homo sapiens, UniProt P55055); assay: Ligand-binding test procedure for human LXRβ (3H T0901317 competition, flash plates); settings: for Binding ratio a/b: IC50 (μM) LXRα binding/IC50 (μM) LXRβ binding; for IC50: biotinylated hLXRβ, tracer 3H T0901317
T2 construct: biotin (biotinylated; biotinylation tag not described); made in house; host or cells: E. coli
T2 sequence (P55055 1-460): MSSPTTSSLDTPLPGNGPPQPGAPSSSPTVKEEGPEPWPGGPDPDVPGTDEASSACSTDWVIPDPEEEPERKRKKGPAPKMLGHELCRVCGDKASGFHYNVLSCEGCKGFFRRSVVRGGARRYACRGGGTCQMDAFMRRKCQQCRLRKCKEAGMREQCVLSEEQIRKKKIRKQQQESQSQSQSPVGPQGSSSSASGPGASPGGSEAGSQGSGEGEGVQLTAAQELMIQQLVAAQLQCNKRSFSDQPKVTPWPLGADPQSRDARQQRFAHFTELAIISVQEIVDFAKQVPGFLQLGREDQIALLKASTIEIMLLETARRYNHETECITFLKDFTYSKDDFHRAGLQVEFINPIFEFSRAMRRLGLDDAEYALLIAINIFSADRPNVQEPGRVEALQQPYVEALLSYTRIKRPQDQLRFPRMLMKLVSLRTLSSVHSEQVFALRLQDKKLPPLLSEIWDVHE

SMILES	IC50 (human LXRα)	Binding ratio a/b (human LXRβ)	IC50 (human LXRβ)
Cc1c(C(=O)O)cc(Br)c(NCc2cccc(-c3c(Cc4ccccc4)cnc4c(C(F)(F)F)cccc34)c2)c1C [Example 108, 4-({3-[3-benzyl-8-(trifluoromethyl)quinolin-4-yl]benzyl}amino)-5-bromo-2,3-dimethylbenzoic acid]	3620 nM	1	2730 nM
O=C(O)c1cc2ccccc2cc1OCc1cccc(-c2c(Cc3ccccc3)cnc3c(C(F)(F)F)cccc23)c1 [Example 109, 3-({3-[3-benzyl-8-(trifluoromethyl)quinolin-4-yl]benzyl}oxy)-2-naphthoic acid]	3590 nM	1	2730 nM
O=C(O)c1c(Cl)cccc1NCc1cccc(-c2c(Cc3ccccc3)cnc3c(C(F)(F)F)cccc23)c1 [Example 111, 2-({3-[3-benzyl-8-(trifluoromethyl)quinolin-4-yl]benzyl}amino)-6-chlorobenzoic acid]	874 nM	1	709 nM
O=C(O)Cc1cccc2c(NCc3cncc(-c4ccnc5c(C(F)(F)F)cccc45)c3)cccc12 [Example 116, {5-[({5-[8-(trifluoromethyl)quinolin-4-yl]pyridin-3-yl}methyl)amino]-1-naphthyl}acetic acid]	> 10000 nM		15700 nM
Cc1cc(NCc2cncc(-c3c(C)cnc4c(C(F)(F)F)cccc34)c2)c(C)cc1CC(=O)O [Example 117, {2,5-dimethyl-4-[({5-[3-methyl-8-(trifluoromethyl)quinolin-4-yl]pyridin-3-yl}methyl)amino]phenyl}acetic acid]	> 1000 nM		2520 nM

Further lines, results first:

IC50 (human LXRα)	Binding ratio a/b (human LXRβ)	IC50 (human LXRβ)	SMILES
2040 nM	1	1580 nM	O=C(O)c1ccc(NCc2cccc(-c3c(Cc4ccccc4)cnc4c(C(F)(F)F)cccc34)c2)c(OC(F)(F)F)c1 [Example 110, 4-({3-[3-benzyl-8-(trifluoromethyl)quinolin-4-yl]benzyl}amino)-3-(trifluoromethoxy)benzoic acid]
517 nM	1	464 nM	O=C(O)c1cc(F)ccc1NCc1cccc(-c2c(Cc3ccccc3)cnc3c(C(F)(F)F)cccc23)c1 [Example 112, 2-({3-[3-benzyl-8-(trifluoromethyl)quinolin-4-yl]benzyl}amino)-5-fluorobenzoic acid]
1720 nM	1	1560 nM	O=C(O)c1ccc(COc2cccc(-c3c(Cc4ccccc4)cnc4c(C(F)(F)F)cccc34)c2)c(Cl)c1 [Example 113, 4-({3-[3-benzyl-8-(trifluoromethyl)quinolin-4-yl]phenoxy}methyl)-3-chlorobenzoic acid]
1290 nM	1	1190 nM	O=C(O)Cc1ccc2cccc(OCc3cccc(-c4c(Cc5ccccc5)cnc5c(C(F)(F)F)cccc45)c3)c2c1 [Example 114, [8-({3-[3-benzyl-8-(trifluoromethyl)quinolin-4-yl]benzyl}oxy)-2-naphthyl]acetic acid]
10700 nM	1	10300 nM	Cc1cnc2c(C(F)(F)F)cccc2c1-c1cccc(CNc2cccc(F)c2C(=O)O)c1 [Example 115, 2-fluoro-6-({3-[3-methyl-8-(trifluoromethyl)quinolin-4-yl]benzyl}amino)benzoic acid]
> 1000 nM		3740 nM	O=C(O)Cc1cccc2c(OCc3cncc(-c4ccnc5c(C(F)(F)F)cccc45)c3)cccc12 [Example 118, [5-({5-[8-(trifluoromethyl)quinolin-4-yl]pyridin-3-yl}methoxy)-1-naphthyl]acetic acid]
> 1000 nM		7220 nM	Cc1cnc2c(C(F)(F)F)cccc2c1-c1cncc(CNc2cccc3c(CC(=O)O)cccc23)c1 [Example 119, {5-[({5-[3-methyl-8-(trifluoromethyl)quinolin-4-yl]pyridin-3-yl}methyl)amino]-1-naphthyl}acetic acid]
